One substance from patent US10060935B2, “ApoIII and the treatment and diagnosis of diabetes” (BioCrine AB, priority 2003, dated 2018) can be followed below.

“Also recorded” adds a separate entry of the source.

Series [1] deals with pancreatic β-cells. Kind of series: Measurements of [Ca2+]i (fura-2) in β-cells upon depolarization with 25 mM KCl. Format: cell-based, mouse. To be noted: for increase in [Ca2+]i / Ca2+ influx upon depolarization: 10 μg/ml, incubation of β-cells, versus vehicle (0.1% TFA) control. Here is the method: Preparation of Cells Adult mice from a local colony (3) were starved overnight. Pancreatic islets were isolated by a collagenase technique and cell suspensions were prepared as previously described (4, 5). Cells were seeded onto glass coverslips and cultured at 37° C. in a humidified atmosphere of 5% CO2 in air. • Preparation and Purification of Sera: Sera from T1D patients and control subjects were collected, identically sterile-processed and stored frozen at −20° C. until used. The sera were heat-inactivated by incubation at 56° C. for 30 min. Thereafter β-cells were incubated overnight in RPMI 1640 culture medium with 10% of the sera and changes in [Ca^2+]i were recorded, subsequent to depolarization with 25 mM KCl. The five T1D sera that induced an enhanced [Ca^2+]i response were centrifuged and the supernatant was passed through a […] sterile filter. Samples were loaded on Sep-Pak C18 (Waters, Ma) preconditioned with 0.1% TFA. After a wash with 0.1% TFA, proteins were eluted with 60% acetonitrile in 0.1% TFA and thereafter lyophilized. Batches of one milligram of the lyophilized sample were dissolved in 500 μl 0.1% TFA, centrifuged and injected into a RP-HPLC with a Vydac C18 (0.46×25 cm) column (Grace Vydac, Hesperia, Ca). The separation was made using a linear gradient of 20-60% acetonitrile in 0.1% TFA for 40 min at 1 ml/min. Fractions of 1 ml were collected and lyophilized.
Measurements of [Ca^2+]i Cells, attached to coverslips, were pretreated with the different compounds as described in the results and thereafter incubated in basal medium with 2 μM fura-2AM (Molecular Probes, Eugene, Oreg.) for 30 min. The coverslips were mounted as the bottom of an open chamber and cells were perfused with medium. Fluorescence signals were recorded with a SPEX Fluorolog-2 system connected to an inverted Zeiss Axiovert epifluorescence microscope. The excitation and emission wavelengths were 340/380 and 510 nm, respectively. The results are presented as 340/380 excitation ratios, directly representative of [Ca^2+]i (7).

Series [2] concerns RINm5F cells. The experiment in a line: Flow cytometric analysis of cell death (Annexin V / propidium iodide). Format: cell-based. Conditions: 40 μg/ml apoCIII added to culture medium with 10% control serum, 36 h. Here is the method: Quantification of apoCIII Sera were collected and prepared as described above. The relative amounts of apoCIII in T1D serum and control serum, respectively were evaluated by comparisons of the peak area corresponding to apoCIII in the second RP-HPLC. • Flow Cytometric Analysis of Cell Death RINm5F cells were cultured for 36 h in the presence of 10% control serum, control serum and 40 μg/ml apoCIII or T1D serum with or without 100 or 200 μg/ml anti-apoCIII. The whole cell population was collected and stained with EGFP-conjugated Annexin V and propidium iodide (PI) (BD PharMingen) and analyzed on a FACscan using CELLQuest acquisition software (Becton Dickinson, Immunocytometry System). FACS gating, based on forward and side scatter, was used to exclude cellular debris and autofluorescence and typically 10 000 cells were selected for analysis.
Background: A flow cytometer gives signals particle by particle.

The subject of series [3] is voltage-gated L-type Ca2+-channel. Kind of series: Perforated-patch whole-cell patch clamp of Ca2+ currents in β-cells. The format is cell-based, mouse. Conditions: β-cells incubated with 10 μg/ml apoCIII overnight; depolarizations −10 to 10 mV from holding potential −70 mV. Here is the method:
Patch Clamp Whole-cell Ca^2+ currents were recorded by using the perforated-patch variant of the whole-cell patch-clamp recording technique to eliminate the loss of soluble cytoplasmic components. Electrodes were filled with (in mM): 76 Cs2SO4, 1 MgCl2, 10 KCl, 10 NaCl, and 5 HEPES (pH 7.35), as well as amphotericin B (0.24 mg/ml) to permeabilize the cell membrane and allow low-resistance electrical access without breaking the patch. Pancreatic β-cells were incubated in RPMI 1640 medium with apoCIII (10:g/ml) or vehicle overnight. The cells were bathed in a solution containing (in mM): 138 NaCl, 10 tetraethylammonium chloride, 10 CaCl2, 5.6 KCl, 1.2 MgCl2, 5 HEPES and 3 D-glucose (pH 7.4). Whole-cell currents induced by voltage pulses (from a holding potential of −70 mV to several clamping potentials from −60 to 50 mV in 10 mV increments, 100 ms, 0.5 Hz) were filtered at 1 kHz and recorded. All recordings were made with an Axopatch 200 amplifier (Axon Instruments, Foster City, Calif.) at room temperature (about 22° C.). Acquisition and analysis of data were done using the software program pCLAMP6 (Axon Instruments, Foster City, Calif.).
(In patch-clamp work, channel activity is measured electrically.)

For series [4], the system named is Ca2+-channel. Kind of series: Immunoblot experiments for direct interaction with the Ca2+-channel. Format: binding. To be noted: immunoblot (data not shown). (In general: In western blotting, separated proteins are transferred to a membrane and probed.)

Take apolipoprotein CIII [apoCIII]: the “increase in [Ca2+]i / Ca2+ influx upon depolarization” value in series [1] was “stimulate Ca^2+ influx”; in series [1] (listed as ApoCIII) it was “increase in [Ca^2+]i”. Also, the “effect on [Ca2+]i” value in series [1] (apoCIII 1, 3 and 6 μg/ml in culture medium) is on record as “did not see any effects”; in series [1] (apoCIII 10-50 μg/ml in culture medium) it was “responses”. Moreover, the cell death result in series [2] is “increased cell death”; in series [2] (listed as ApoCIII), “β-cell death”. Further, the “Ca2+-channel currents” value in series [3] is listed as “larger Ca^2+-channel currents than control cells; also recorded: activation of the voltage-gated L-type Ca^2+-channel”. Moreover, the “direct interaction with the Ca2+-channel” value in series [4] is reported as “not revealed a direct interaction”.
